This is an account of results in patent publication US9051311B2, “Sulfamide sodium channel inhibitors” (AMGEN INC., priority 2012, dated 2015).

Structures can show the parent of a compound that is named as a salt. Some results are limits rather than exact numbers.

In one data set the target is Nav 1.5 (Homo sapiens (Human), UniProt Q14524). In words: Nav 1.5 IonWorks Quattro (IWQ) in vitro assay, population patch-clamp.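 Further: HEK293 cells stably expressing Nav1.5, sodium current at the 26th of 26 pulses to −20 mV (150 ms, 5 Hz) after compound versus before, leak-corrected, 3–8 min exposure.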 The conditions noted are these: read-out: Nav 1.5 (IWQ) IC50; 293 cells stably transfected with Nav 1.5; block at 26th pulse to −20 mV. On the technique in general: The patch-clamp technique gives a direct electrical read-out from membranes.
The target of data set [1] is T1, Nav 1.7 (Homo sapiens (Human), UniProt Q15858). The data set is described as follows: Nav 1.7 IonWorks Quattro (IWQ) in vitro assay, population patch-clamp.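 Further: cells held at −110 mV for 3 s, then 26 pulses of 150 ms at 5 Hz, leak-corrected peak current, percent block measured before and after compound, 3–8 min exposure.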 The note with it: 293 cells stably transfected with Nav 1.7; block at 26th pulse to −20 mV. The class given is cell-based.
Procedure: Nav 1.7 and Nav 1.5 Ion Works Quattro (IWQ) In Vitro Assays
293 cells stably transfected with either Nav 1.7 or with Nav 1.5 were recorded in population patch-clamp mode with the IonWorks® Quattro automated electrophysiology system in accordance with the manufacturer's specifications (Molecular Devices, LLC, Sunnyvale, Calif.). Sodium channel currents were measured in response to a train of depolarizations that induced successively greater inactivation.
Cells were held at −110 mV for three seconds (Nav 1.7) or half a second (Nav 1.5) from a holding voltage of −15 mV, then put through a series of 26 pulses of 150 msec duration to −20 mV at a frequency of 5 Hz. Cells were then left unclamped for a period of 3 to 8 minutes while a single concentration of test compound was added. Cells were then reclamped and put through the same voltage protocol. Current at the end of the 26th pulse to −20 mV was subtracted from the peak current evoked by the 26th pulse to −20 mV to correct for leak current. Percent block was calculated for each concentration in duplicate, and IC50 curves were fitted to percent block as a function of concentration.
Data set [2] addresses T1, Nav 1.7. In words: Nav 1.7 in vitro PatchExpress (PX) assay, whole cell voltage clamp. The note with it: 293 cells stably transfected with human Nav1.7; partially inactivated state (20 to 50% inactivation). Format: cell-based.

T1 sequence (Q15858 whole entry): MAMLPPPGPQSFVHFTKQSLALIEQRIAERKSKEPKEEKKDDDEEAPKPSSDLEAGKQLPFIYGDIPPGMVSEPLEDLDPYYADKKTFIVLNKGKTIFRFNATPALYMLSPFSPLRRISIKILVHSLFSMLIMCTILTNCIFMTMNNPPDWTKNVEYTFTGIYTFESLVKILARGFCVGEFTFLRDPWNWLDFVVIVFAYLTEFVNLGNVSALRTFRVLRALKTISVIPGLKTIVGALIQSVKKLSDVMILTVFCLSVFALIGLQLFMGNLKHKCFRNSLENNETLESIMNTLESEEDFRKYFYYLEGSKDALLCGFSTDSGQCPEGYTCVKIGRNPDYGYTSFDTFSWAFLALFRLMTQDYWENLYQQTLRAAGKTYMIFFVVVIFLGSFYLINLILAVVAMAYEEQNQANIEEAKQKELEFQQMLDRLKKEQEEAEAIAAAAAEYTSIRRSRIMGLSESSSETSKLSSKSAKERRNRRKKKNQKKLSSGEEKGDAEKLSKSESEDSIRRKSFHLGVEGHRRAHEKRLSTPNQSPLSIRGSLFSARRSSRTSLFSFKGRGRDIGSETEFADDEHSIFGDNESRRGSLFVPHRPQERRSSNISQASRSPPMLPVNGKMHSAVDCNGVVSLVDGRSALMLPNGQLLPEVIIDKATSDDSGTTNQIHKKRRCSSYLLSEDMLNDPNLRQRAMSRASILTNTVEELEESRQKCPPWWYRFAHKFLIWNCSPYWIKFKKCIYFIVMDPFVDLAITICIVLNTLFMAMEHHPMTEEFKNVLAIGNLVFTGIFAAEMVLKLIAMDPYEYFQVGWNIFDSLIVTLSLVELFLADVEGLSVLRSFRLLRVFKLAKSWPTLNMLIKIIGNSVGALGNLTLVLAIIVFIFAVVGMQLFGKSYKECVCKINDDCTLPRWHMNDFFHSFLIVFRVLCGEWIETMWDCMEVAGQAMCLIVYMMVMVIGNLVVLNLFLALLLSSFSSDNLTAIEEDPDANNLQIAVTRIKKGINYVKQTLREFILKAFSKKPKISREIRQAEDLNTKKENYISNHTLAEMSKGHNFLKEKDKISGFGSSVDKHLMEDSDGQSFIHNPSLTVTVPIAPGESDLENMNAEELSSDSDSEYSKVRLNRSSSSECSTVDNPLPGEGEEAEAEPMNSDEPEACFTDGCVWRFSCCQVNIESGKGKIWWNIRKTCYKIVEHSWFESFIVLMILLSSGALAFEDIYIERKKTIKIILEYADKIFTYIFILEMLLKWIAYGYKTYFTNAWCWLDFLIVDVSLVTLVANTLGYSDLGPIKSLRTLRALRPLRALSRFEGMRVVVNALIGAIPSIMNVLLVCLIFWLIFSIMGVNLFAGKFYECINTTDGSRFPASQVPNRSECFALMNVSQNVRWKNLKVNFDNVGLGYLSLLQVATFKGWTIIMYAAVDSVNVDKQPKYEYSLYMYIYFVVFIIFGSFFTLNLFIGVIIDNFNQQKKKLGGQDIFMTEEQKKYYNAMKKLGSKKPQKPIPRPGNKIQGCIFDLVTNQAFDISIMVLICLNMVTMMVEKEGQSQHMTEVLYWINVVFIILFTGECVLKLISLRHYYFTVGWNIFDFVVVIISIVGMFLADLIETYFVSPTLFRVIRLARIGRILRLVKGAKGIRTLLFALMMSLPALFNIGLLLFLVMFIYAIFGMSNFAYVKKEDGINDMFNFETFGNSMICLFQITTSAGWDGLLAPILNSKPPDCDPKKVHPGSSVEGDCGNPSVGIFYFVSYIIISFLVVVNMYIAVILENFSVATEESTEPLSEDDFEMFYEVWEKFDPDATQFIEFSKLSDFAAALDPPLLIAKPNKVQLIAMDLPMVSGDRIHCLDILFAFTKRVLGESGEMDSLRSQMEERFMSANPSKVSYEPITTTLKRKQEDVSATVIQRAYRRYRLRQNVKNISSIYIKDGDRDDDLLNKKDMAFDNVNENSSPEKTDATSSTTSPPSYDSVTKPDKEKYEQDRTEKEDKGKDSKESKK
Chain of Nav 1.5 (Q14524 whole entry): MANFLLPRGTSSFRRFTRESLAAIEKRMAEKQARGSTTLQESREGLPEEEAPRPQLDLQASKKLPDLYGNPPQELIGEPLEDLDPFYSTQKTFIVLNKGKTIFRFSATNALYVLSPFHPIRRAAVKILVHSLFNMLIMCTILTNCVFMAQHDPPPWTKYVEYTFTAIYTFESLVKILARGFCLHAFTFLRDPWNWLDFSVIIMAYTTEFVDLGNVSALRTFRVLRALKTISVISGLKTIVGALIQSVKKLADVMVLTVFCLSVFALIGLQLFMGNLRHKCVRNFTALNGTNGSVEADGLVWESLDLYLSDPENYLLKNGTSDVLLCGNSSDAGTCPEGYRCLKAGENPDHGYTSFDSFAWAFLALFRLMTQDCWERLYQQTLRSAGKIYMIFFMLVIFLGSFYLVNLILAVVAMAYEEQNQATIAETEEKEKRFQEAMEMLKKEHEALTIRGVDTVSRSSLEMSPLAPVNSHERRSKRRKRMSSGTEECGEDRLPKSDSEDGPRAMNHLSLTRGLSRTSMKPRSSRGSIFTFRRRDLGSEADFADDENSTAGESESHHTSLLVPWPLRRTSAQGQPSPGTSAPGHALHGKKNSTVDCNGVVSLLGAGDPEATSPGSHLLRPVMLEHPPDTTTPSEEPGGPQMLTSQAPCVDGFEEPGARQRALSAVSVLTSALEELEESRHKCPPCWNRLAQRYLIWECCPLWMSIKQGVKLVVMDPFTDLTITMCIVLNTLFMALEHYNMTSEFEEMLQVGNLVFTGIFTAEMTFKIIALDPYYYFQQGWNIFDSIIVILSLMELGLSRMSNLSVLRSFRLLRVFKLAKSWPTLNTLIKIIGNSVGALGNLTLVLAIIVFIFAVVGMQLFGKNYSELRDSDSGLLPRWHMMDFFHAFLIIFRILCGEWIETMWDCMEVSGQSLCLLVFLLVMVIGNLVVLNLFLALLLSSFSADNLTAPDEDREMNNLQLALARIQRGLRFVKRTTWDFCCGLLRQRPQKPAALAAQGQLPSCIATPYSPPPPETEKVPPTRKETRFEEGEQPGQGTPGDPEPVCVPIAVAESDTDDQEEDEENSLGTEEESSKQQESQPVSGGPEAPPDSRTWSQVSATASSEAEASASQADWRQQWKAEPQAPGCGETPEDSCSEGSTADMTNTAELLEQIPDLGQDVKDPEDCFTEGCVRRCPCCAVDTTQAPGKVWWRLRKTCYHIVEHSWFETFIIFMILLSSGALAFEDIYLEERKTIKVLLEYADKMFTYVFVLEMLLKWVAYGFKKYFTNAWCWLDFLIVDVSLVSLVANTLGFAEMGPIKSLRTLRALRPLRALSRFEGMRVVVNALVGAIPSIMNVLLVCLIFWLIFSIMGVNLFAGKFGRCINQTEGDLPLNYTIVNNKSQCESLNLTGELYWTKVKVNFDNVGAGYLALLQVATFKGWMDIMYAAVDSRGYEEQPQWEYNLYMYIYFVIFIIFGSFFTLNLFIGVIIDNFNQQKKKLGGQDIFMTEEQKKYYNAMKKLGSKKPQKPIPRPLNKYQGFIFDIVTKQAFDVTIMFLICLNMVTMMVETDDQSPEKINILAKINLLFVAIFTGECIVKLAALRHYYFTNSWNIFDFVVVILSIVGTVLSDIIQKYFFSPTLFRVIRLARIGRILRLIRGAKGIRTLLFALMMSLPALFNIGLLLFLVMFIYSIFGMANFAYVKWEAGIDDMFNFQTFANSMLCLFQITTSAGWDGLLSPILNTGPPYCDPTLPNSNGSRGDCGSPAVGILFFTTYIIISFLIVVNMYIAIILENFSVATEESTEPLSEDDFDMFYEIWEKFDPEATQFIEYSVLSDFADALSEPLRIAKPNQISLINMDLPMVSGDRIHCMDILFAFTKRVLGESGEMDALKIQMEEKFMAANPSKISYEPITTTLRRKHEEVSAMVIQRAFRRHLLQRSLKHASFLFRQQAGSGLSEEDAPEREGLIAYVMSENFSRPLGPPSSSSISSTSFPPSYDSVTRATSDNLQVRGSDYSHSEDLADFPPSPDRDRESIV

As for `O=S(=O)(Nc1ncns1)N1CCc2c(cccc2-c2ccc(C(F)(F)F)cc2C2=CCNCC2)C1` [Example 6, 5-(2-(1,2,3,6-Tetrahydropyridin-4-yl)-4-(trifluoromethyl)phenyl)-N-(1,2,4-thiadiazol-5-yl)-3,4-dihydroisoquinoline-2(1H)-sulfonamide hydrochloride], the half-maximal inhibitory concentration (IC50) at Nav 1.5 was over 10 µM; against Nav 1.7 [1] it was 0.0221 µM; against Nav 1.7 [2] it was 0.03 µM.
The corresponding values for `O=S(=O)(Nc1ncns1)N1CCc2c(cccc2-c2ccc(Cl)cc2F)C1` [Example 11, 5-(4-Chloro-2-fluorophenyl)-N-(1,2,4-thiadiazol-5-yl)-3,4-dihydroisoquinoline-2(1H)-sulfonamide] are over 10 µM, 4.22 µM and 7.66 µM.

Usually IC50 stands for the concentration needed to halve the response being measured.
